According to patent publication US20020169101A1, “Treatment of sexual dysfunction” (priority 1999, published 2002):

Columns and labels:
human NMB receptor (BB1) = target: T1, human NMB receptor (BB1) (Homo sapiens, UniProt P28336); test: BB1 binding assay ([125I][Tyr4]bombesin displacement, CHO-K1 membranes); settings: Table 1, human NMB receptor binding affinity; Ki from IC50 by Cheng-Prusoff; read-out: NMB Ki
T1 construct: expressed in transfected cells; membranes prepared from the cells
Method in brief: (§1)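 Competition against <0.1 nM [125I][Tyr4]bombesin, 60 min for the NMB receptor and 90 min for the GRP receptor, using homogenised membranes of human-receptor-expressing CHO-K1 cells in pH 7.4 Tris buffer. Bound label was filtered and gamma-counted, with 1 μM bombesin as nonspecific. Ki values came from IC50 via Cheng-Prusoff.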

human GRP receptor (BB2) = target: T2, human GRP receptor (BB2) (Homo sapiens, UniProt P30550); test: BB2 binding assay ([125I][Tyr4]bombesin displacement, CHO-K1 membranes); settings: Table 1, human GRP receptor binding affinity; Ki from IC50 by Cheng-Prusoff; read-out: GRP Kj
T2 construct: expressed in transfected cells; membranes prepared from the cells
T2 sequence (P30550 whole entry): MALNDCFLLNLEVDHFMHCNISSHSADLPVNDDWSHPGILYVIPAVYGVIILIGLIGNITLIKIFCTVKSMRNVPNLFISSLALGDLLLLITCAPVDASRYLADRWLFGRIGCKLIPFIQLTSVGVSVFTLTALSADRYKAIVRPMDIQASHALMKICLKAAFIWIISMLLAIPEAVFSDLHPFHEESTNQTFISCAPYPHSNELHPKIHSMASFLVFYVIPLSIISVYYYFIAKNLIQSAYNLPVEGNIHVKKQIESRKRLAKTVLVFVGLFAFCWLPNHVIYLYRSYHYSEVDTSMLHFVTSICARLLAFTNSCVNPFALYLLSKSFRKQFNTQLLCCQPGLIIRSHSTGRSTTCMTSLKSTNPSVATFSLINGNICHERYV
Method in brief: as §1

[1] = system: sexual behaviour of normal male rats; test: Sexual behaviour of normal (sexually vigorous) male rats; type: in vivo, rat; settings: Compound (1) 15 mg/kg or Fluoxetine 20 mg/kg i.p. 1 h before test
Experimental: The potentially stimulatory effect of Compound (1) on male sexual behaviour has been tested on sexually vigorous rats. Sprague Dawley male rats (Charles River, UK) were kept, 4 rats per cage, in a reversed lighting regime (12:12 hours, lights off at 5.00 h), with free access to food and water. The rats were pre-selected by being presented with a receptive female at 4 days intervals, i.e. every third day (having 2 clear days between presentations) until completing 6-7 […] of baseline determination. The animals showing consistently vigorous behaviour (ejaculatory latencies <300s) were chosen for further experiments (n—24). Animals were randomised into three groups. All animals received all three treatments following a latin-square design. Treatments were administered once a week, with a baseline test in between treatments (4 days intervals between baseline and test day). Treatments were Compound (1) (15 mg/kg, dissolved in 50% 2-hydroxypropyl-β-cyclodextrin in saline), vehicle, or Fluoxetine (20 mg/kg dissolved in 100% DMSO). All treatments were administered i.p. in a 1 ml/kg volume, 1 h before tests.
For all the sexual behaviour tests, the males were placed in an observation arena (50-60 cm diameter), starting 5 hours into the dark cycle and observed under red illumination. Three to 4 minutes after placing the male in the arena, a receptive female (ovariectomised, bearing a 7 mm Silastic implant of oestradiol benzoate) was introduced to the arena and the following parameters noted: Mount Latency: time (in seconds) taken between introduction of female and first mount. A maximum time of 15 minutes (900 seconds) was allowed, and the test terminated if no mounts were recorded within that time (FIG. 11), Intromission Latency: time (in seconds) taken between introduction of female and first intromission (FIG. 12), Number of Mounts: to reach ejaculation. When ejaculation was not reached, the number of mounts was not analyzed, Number of Intromissions: to reach ejaculation. When ejaculation was not reached, the number of intromissions was not analyzed (FIG. 13 is number of mounts+intromissions), Ejaculation Latency: time (in seconds) taken from first intromission to ejaculation. A maximum time of 30 minutes (1800 seconds) was given, and the test terminated if ejaculation was not achieved in that time (FIG. 14), and Refractory Period: time (in seconds) taken from ejaculation to the first mount of the next series of sexual activity. In those animals reaching ejaculation the test was terminated at the end of the refractory period, as indicated by the first mount of the next sexual cycle (FIG. 15).
A one-way ANOVA followed by Dunnett's t test was used to compare treated vs vehicle groups each day of testing, for all the sexual behaviour parameters. (*P<0.05, **P<0.01; n=15-16).

[2] = system: sexual behaviour of sexually dysfunctional male rats; test: Sexual behaviour of fluoxetine-induced sexually dysfunctional male rats; type: in vivo, rat
Experimental: Sprague Dawley male rats (Charles River, UK) were kept, 4 rats per cage, in a reversed lighting regime (12:12 hours, lights off at 5.00 h), with free access to food and water. The rats were pre-selected by being presented with a receptive female at 4 days intervals, i.e. every third day (having 2 clear days between presentations) until completing 6-7 trials of baseline determination. The animals showing consistently vigorous behaviour (ejaculatory latencies <300s) were chosen for further experiments. Animals were treated for 3 consecutive days with either vehicle (water) or fluoxetine (20 mg/kg, i.p., in a 2 ml/kg dosing volume). On the fourth day, the animals treated with water received vehicle (veh+veh) and the animals treated with fluoxetine received one of the three following treatments: Compound (1) (15 mg/kg, dissolved in 50% 2-hydroxypropyl-β-cyclodextrin in saline), vehicle (cyclodextrine), or yohimbine (2 mg/kg dissolved in water). All treatments were administered i.p. in a 1 ml/kg volume, 1 h before tests.
For all the sexual behaviour tests, the males were placed in an observation arena (50-60 cm diameter), starting 5 hours into the dark cycle and observed under red illumination. Three to 4 minutes after placing the male in the arena, a receptive female (ovariectomised, bearing a 7 mm Silastic implant of oestradiol benzoate) was introduced to the arena and the following parameters noted: Mount Latency: time (in seconds) taken between introduction of female and first mount. A maximum time of 15 minutes (900 seconds) was allowed, and the test terminated if no mounts were recorded within that time (FIG. 16), Ejaculation Latency: time (in seconds) taken from first intromission to ejaculation. A maximum time of 30 minutes (1800 seconds) was given, and the test terminated if ejaculation was not achieved in that time (FIG. 17), Percentage of males achieving ejaculation within 30 minutes was calculated (FIG. 18).
A one-way ANOVA followed by Dunnett's t test was used to compare the fluoxetine+vehicle group and other groups for mount and ejaculatory latencies. Percentage of animals ejaculating was analysed using a Chi-square test followed by Fisher's test. (*: P<0.05, **: P<0.01, ***: P<0.001; n=15-19).

[3] = fluoxetine 20 mg/kg i.p. for 3 consecutive days, vs vehicle+vehicle group

T1 sequence (P28336 whole entry): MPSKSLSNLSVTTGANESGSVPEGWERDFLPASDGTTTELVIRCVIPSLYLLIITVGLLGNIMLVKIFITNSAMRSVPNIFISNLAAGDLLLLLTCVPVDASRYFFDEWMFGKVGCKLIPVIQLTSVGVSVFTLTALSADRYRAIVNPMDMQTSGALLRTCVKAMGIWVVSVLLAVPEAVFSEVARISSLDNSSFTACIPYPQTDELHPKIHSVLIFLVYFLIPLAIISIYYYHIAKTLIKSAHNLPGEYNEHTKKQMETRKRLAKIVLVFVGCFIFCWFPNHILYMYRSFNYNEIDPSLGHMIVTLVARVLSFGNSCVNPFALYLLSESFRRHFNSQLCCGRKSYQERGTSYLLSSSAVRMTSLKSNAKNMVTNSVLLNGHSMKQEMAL

Question: What does the source list for C[C@@](Cc1c[nH]c2ccccc12)(Nc1cncc2ccccc12)C(=O)NCC1(c2ccccn2)CCCCC1 [Example 19, (S)-3-(1H-Indol-3-yl)-2-(isoquinolin-4-ylamino)-2-methyl-N-(1-pyridin-2-yl-cyclohexylmethyl)-propionamide]?
Answer: Ki (human NMB receptor (BB1)): 1250 nM; melting point: 98 to 101 °C

Question: For COCC1(CNC(=O)[C@](C)(Cc2c[nH]c3ccccc23)Nc2nc(-c3ccc([N+](=O)[O-])cc3)co2)CCCCC1 [Example 10, (S)-3-(1H-Indol-3-yl)-N-(1-methoxymethyl-cyclohexylmethyl)-2-methyl-2-[4-(4-nitro-phenyl)-oxazol-2-ylamino]-propionamide], which Ki (human NMB receptor (BB1)) is on record?
Answer: 469 nM

Question: And the melting point?
Answer: 189 to 192 °C

Question: Which results are given for COc1ccc(C2(CNC(=O)[C@](C)(Cc3c[nH]c4ccccc34)Nc3nc(-c4ccc(C#N)cc4)co3)CCCCC2)nc1 [Example 13, (S)-2-[4-(4-Cyano-phenyl)-oxazol-2-ylamino]-3-(1H-indol-3-yl)-N-[1-(5-methoxy-pyridin-2-yl)-cyclohexylmethyl]-2-methyl-propionamide]?
Answer: Ki (human NMB receptor (BB1)): 19 nM; Ki (human GRP receptor (BB2)): 1380 nM; melting point: 105 to 108 °C

Question: Which results are given for C[C@@](Cc1c[nH]c2ccccc12)(Nc1ccncc1)C(=O)NCC1(c2ccccn2)CCCCC1 [Example 18, (S)-3-(1H-Indol-3-yl)-2-methyl-2-(pyridin-4-ylamino)-N-(1-pyridin-2-yl-cyclohexylmethyl)-propionamide]?
Answer: Ki (human NMB receptor (BB1)): 303 nM; melting point: 180 to 195 °C

Question: Which Ki (human NMB receptor (BB1)) does the source give for COc1ccc(C2(CNC(=O)[C@](C)(Cc3c[nH]c4ccccc34)Nc3nc(-c4ccccc4)co3)CCCCC2)nc1 [Example 14, (S)-3-(1H-Indol-3-yl)-N-[1-(5-methoxy-pyridin-2-yl)-cyclohexylmethyl]-2-methyl-2-(4-phenyl-oxazol-2-ylamino)-propionamide] here?
Answer: 106 nM

Question: And the Ki (human GRP receptor (BB2))?
Answer: 1190 nM

Question: And the melting point?
Answer: 85 to 90 °C

Question: Which “Mount Latency” value ([1]; vs vehicle (FIG. 11)) does the source give for CNCCC(Oc1ccc(C(F)(F)F)cc1)c1ccccc1 (centres unmarked) [Fluoxetine, reference compound] here?
Answer: significantly increased

Question: What about the “Intromission Latency” value ([1]; vs vehicle (FIG. 12)) of the same molecule?
Answer: significantly increased

Question: What about the “number of mounts and intromissions required to achieve ejaculation” value ([1]; vs vehicle (FIG. 13)) of the same molecule?
Answer: No changes

Question: And the “Ejaculation Latency” value ([1]; vs vehicle (FIG. 14))?
Answer: also increased

Question: What about the “Refractory Period” value ([1]; vs vehicle (FIG. 15)) of the same molecule?
Answer: also increased

Question: What about the “Ejaculation Latency” value [2, 3] of the same molecule?
Answer: significantly increased

Question: What about the “Mount Latency” value [2, 3] of the same molecule?
Answer: significantly increased

Question: And the “number of animals ejaculating” value [2, 3]?
Answer: significantly lower

Question: With C[C@@](Cc1c[nH]c2ccccc12)(NCc1ccc([N+](=O)[O-])cc1)C(=O)NCC1(c2ccccn2)CCCCC1 [Example 27, (S)-3-(1H-Indol-3-yl)-2-methyl-2-(4-nitro-benzylamino)-N-(1-pyridin-2-yl-cyclohexylmethyl)-propionamide] as the molecule, how does the Ki (human NMB receptor (BB1)) read?
Answer: 652 nM

Question: What about the melting point of the same molecule?
Answer: 58 to 60 °C

Question: With C[C@@](Cc1c[nH]c2ccccc12)(Nc1cncnc1)C(=O)NCC1(c2ccccn2)CCCCC1 [Example 20, (S)-3-(1H-Indol-3-yl)-2-methyl-N-(1-pyridin-2-yl-cyclohexylmethyl)-2-(pyrimidin-5-ylamino)-propionamide] as the molecule, how does the Ki (human NMB receptor (BB1)) read?
Answer: 3160 nM

Question: What about the melting point of the same molecule?
Answer: 95 to 98 °C

Question: For O=C(NCC1(c2ccccn2)CCCCC1)[C@@H](Cc1ccccc1)Nc1ccccc1 [Example 24, (R)-3-Phenyl-2-phenylamino-N-[1 1-pyridin-2-yl-cyclohexylmethyl)-propionamide], which Ki (human NMB receptor (BB1)) is on record?
Answer: 137 nM

Question: What about the melting point of the same molecule?
Answer: 113 to 115 °C

Question: With COC(=O)[C@@H]1[C@H]2C[C@H]3c4[nH]c5ccccc5c4CCN3C[C@@H]2CC[C@@H]1O [Yohimbine, yohimbine] as the molecule, how does the “Mount Latency” value ([2]; fluoxetine-pretreated rats, Compound (1) 15 mg/kg or yohimbine 2 mg/kg i.p. 1 h before test, vs fluoxetine+vehicle (FIG. 16)) read?
Answer: followed a similar trend, although this did not reach significance

Question: What about the “Ejaculation Latency” value ([2]; fluoxetine-pretreated rats, Compound (1) 15 mg/kg or yohimbine 2 mg/kg i.p. 1 h before test, vs fluoxetine+vehicle (FIG. 17)) of the same molecule?
Answer: followed a similar trend, although this did not reach significance

Question: And the “percentage of animals ejaculating” value ([2]; fluoxetine-pretreated rats, Compound (1) 15 mg/kg or yohimbine 2 mg/kg i.p. 1 h before test, vs fluoxetine+vehicle (FIG. 18))?
Answer: followed a similar trend, although this did not reach significance

Question: For Cc1cccc(N[C@@](C)(Cc2c[nH]c3ccccc23)C(=O)NCC2(c3ccccn3)CCCCC2)c1 [Example 22, (S)-3-(1H-Indol-3-yl)-2-methyl-N-(1-pyridin-2-yl-cyclohexylmethyl)-2-m-tolylamino-propionamide], which Ki (human NMB receptor (BB1)) is on record?
Answer: 653 nM

Question: What about the melting point of the same molecule?
Answer: 70 to 75 °C

Question: Which Ki (human NMB receptor (BB1)) does the source give for CCc1coc(N[C@@](C)(Cc2c[nH]c3ccccc23)C(=O)NCC2(c3ccc(OC)cn3)CCCCC2)n1 [Example 15, (S)-2-(4-Ethyl-oxazol-2-ylamino)-3-(1H-indol-3-yl)-N-[1-(5-methoxy-pyridin-2-yl)-cyclohexylmethyl]-2-methyl-propionamide] here?
Answer: 213 nM

Question: And the Ki (human GRP receptor (BB2))?
Answer: 1770 nM

Question: What about the melting point of the same molecule?
Answer: 60 to 65 °C

Question: Which results are given for C[C@@](Cc1c[nH]c2ccccc12)(Nc1nc2ccccc2o1)C(=O)NCC1(c2ccccn2)CCCCC1 [Example 17, (S)-2-(Benzooxazol-2-ylamino)-3-(1H-indol-3-yl)-2-methyl-N-(1-pyridin-2-yl-cyclohexylmethyl)-propionamide]?
Answer: Ki (human NMB receptor (BB1)): 2080 nM; melting point: 198 to 200 °C

Question: Which Ki (human NMB receptor (BB1)) does the source give for C[C@@](Cc1c[nH]c2ccccc12)(Nc1nc(-c2ccc([N+](=O)[O-])cc2)co1)C(=O)NCC(=O)c1ccccc1 [Example 11, (S)-3-(1H-Indol-3-yl)-2-methyl-2-[4-(4-nitro-phenyl)-oxazol-2-ylamino]-N-(2-oxo-2-phenyl-ethyl)-propionamide] here?
Answer: 5580 nM

Question: And the melting point?
Answer: 80 to 90 °C
